Data on 24 molecules can be found in patent US8895733B2 (Novartis AG, priority 2010, dated 2014).

Holding throughout (format): cell-based
In assay [1] the target is T1, Nav 1.7 (Homo sapiens, UniProt Q15858).
T1 construct: expressed in transfected cells
The assay is described as follows: Whole-cell voltage clamp electrophysiology, manual patch clamp (marker b in Table of Examples). The settings on record: read-out: Nav 1.7 activity. In a few lines:
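Manual whole-cell patch clamp on cells expressing human NaV1.7, compounds applied by microperfusion. Protocol biased to inactivated-state block: holding −60 mV, hyperpolarizing step −120 mV for 100 ms, then depolarization to −20 mV for 25 ms, pulses at 0.1 Hz.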
In general terms: In patch-clamp work, channel activity is measured electrically.

Another assay deals with T2, Nav1.5 (Homo sapiens, UniProt Q14524).
T2 construct: expressed in transfected cells
The assay is described as follows: Inhibition of Nav1.5 as measured using manual patch clamp. The source says: Patch-clamp electrophysiology is considered the gold standard technique for investigation of ion channel function and pharmacology. Using this method, sodium channel currents can be measured in cells, which stably (or transiently) express the sodium channel subtype of interest. Application of compounds during such experiments provides a functional measure of the activity and potency of compounds affecting the ion channel of interest.
Electrophysiological studies can also be performed using the whole cell configuration of the standard manual patch clamp technique as described in the literature (e.g. Pflugers Arch., 1981, 391(2), 85-100). In this assay, cells that express the voltage-gated sodium channel protein of interest are exposed to the drugs by conventional microperfusion systems, or by a home-built perfusion system. A suitable voltage stimulus protocol is used to activate the voltage-gated sodium channels.
A suitable voltage stimulus protocol is used to activate voltage-gated sodium channel proteins of interest. A typical stimulus protocol may consist of sweeps of sequential voltage pulses starting from a holding potential (i.e. −65 mV), to a more positive and depolarising test pulse potential (i.e. −10 mV) and finally to a more negative and hyperpolarising potential (i.e. −100 mV). According to the biophysics of the voltage-gated ion channel of interest and interest in channel configuration the voltages and durations of the pulses as well as the overall frequency of sweeps applied might vary. Accordingly, a stimulus protocol was designed to assess compounds due to their potential to block NaV1.7 channels primarily in inactivated state. Selectivity over other voltage-gated sodium channel members was assessed by protocols that reflect the native function of the channels (i.e. heart rate or firing of neurons).
Electrophysiological studies can also be performed using the whole cell configuration of the standard manual patch clamp technique as described in the literature (e.g. Pflugers Arch., 1981, 391(2), 85-100). In this assay, cells that express the human voltage-gated sodium channel protein of interest are exposed to the drugs by conventional microperfusion systems, or by a home-built perfusion system. A suitable voltage stimulus protocol is used to activate the voltage-gated sodium channels. A suitable voltage stimulus protocol may consist of sequential voltage pulses from a holding potential, each first hyperpolarizing the cell, then depolarizing the channels for a brief period. A particularly suitable holding potential may be a voltage allowing a fraction of channels to remain in an inactivated state, like −60 mV. A suitable hyperpolarizing voltage and duration may be −120 mV for 100 ms, and depolarization voltage and duration may be −20 mV for 25 ms, and a suitable frequency of pulses may be 0.1 Hz, but may also have other parameters. Accordingly, a stimulus protocol was designed to assess compounds due to their potential to block NaV1.7 channels primarily in inactivated state. Selectivity over other voltage-gated sodium channel members was assessed by protocols that reflect the native function of the channels (i.e. heart rate or firing of neurons).
Inhibition of Nav1.5 by Compounds of formula (I) as measured using manual patch clamp

The target of assay [2] is T1, Nav 1.7. The assay is described as follows: Whole-cell voltage clamp electrophysiology, automated patch clamp (marker c in Table of Examples). To be noted: marker c: Automated patch clamp data; read-out: Nav 1.7 activity. An outline of the steps:
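Human NaV1.7 currents were recorded by whole-cell automated patch clamp, on IonWorks Quattro or another automated platform, typically in perforated-patch configuration. The stimulus protocol was designed to probe block mainly of the inactivated state, with a typical sweep stepping from about −65 mV holding to −10 mV, then −100 mV.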

Setting [3] is: marker b: Manual patch clamp data.
Where [4] appears, read: marker b = Manual patch clamp data.

T2 sequence (Q14524 whole entry): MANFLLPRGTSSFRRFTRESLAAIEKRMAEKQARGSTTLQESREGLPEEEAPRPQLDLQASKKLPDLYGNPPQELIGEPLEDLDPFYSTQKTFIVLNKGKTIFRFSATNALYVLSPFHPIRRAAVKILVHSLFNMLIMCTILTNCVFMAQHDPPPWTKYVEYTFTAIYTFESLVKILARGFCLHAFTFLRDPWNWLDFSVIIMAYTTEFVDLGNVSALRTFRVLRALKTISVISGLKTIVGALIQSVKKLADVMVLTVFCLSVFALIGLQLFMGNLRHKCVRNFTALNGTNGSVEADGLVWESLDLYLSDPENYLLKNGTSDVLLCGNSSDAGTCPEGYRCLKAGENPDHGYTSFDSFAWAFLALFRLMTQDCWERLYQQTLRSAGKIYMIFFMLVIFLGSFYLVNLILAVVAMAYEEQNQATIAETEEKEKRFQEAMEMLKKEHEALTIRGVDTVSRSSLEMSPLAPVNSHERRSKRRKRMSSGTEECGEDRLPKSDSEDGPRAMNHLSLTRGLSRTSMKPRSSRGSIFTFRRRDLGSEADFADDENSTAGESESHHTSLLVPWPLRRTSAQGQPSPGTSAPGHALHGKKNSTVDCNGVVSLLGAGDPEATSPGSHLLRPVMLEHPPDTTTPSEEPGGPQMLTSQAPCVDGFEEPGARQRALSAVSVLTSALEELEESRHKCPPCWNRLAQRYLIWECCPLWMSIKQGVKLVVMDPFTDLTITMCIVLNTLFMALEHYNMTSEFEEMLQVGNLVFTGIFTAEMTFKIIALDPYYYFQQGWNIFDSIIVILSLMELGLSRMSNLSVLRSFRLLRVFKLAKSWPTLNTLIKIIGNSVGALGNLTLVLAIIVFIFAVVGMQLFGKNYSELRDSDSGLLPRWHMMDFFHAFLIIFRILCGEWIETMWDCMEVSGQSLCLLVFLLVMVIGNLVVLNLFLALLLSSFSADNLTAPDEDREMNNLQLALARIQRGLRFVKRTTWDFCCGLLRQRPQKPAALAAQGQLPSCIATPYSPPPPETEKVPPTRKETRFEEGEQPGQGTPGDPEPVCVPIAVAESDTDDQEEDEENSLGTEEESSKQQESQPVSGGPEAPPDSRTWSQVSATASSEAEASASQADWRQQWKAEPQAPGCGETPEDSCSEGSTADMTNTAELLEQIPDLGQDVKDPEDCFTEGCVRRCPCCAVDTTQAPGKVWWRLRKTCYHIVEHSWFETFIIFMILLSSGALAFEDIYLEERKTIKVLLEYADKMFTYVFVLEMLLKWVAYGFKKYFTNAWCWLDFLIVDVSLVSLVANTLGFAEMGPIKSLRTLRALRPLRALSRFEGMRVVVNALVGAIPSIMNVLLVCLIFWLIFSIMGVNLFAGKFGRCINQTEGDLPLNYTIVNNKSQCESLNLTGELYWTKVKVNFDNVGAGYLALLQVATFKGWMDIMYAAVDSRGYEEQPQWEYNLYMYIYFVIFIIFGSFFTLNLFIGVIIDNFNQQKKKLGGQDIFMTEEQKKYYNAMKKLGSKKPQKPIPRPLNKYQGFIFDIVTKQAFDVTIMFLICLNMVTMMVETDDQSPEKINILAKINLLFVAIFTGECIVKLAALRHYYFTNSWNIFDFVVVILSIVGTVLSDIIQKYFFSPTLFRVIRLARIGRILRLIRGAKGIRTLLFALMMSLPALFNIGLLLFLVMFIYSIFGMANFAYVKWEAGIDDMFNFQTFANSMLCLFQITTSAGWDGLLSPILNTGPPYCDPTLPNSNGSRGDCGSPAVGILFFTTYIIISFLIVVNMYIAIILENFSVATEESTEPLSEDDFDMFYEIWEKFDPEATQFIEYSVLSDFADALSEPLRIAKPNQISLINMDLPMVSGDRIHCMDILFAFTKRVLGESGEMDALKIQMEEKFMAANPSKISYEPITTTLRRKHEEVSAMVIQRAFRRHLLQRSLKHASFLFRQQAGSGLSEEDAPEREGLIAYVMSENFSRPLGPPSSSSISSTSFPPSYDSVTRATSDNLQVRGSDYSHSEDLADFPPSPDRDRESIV
T1 sequence (Q15858 whole entry): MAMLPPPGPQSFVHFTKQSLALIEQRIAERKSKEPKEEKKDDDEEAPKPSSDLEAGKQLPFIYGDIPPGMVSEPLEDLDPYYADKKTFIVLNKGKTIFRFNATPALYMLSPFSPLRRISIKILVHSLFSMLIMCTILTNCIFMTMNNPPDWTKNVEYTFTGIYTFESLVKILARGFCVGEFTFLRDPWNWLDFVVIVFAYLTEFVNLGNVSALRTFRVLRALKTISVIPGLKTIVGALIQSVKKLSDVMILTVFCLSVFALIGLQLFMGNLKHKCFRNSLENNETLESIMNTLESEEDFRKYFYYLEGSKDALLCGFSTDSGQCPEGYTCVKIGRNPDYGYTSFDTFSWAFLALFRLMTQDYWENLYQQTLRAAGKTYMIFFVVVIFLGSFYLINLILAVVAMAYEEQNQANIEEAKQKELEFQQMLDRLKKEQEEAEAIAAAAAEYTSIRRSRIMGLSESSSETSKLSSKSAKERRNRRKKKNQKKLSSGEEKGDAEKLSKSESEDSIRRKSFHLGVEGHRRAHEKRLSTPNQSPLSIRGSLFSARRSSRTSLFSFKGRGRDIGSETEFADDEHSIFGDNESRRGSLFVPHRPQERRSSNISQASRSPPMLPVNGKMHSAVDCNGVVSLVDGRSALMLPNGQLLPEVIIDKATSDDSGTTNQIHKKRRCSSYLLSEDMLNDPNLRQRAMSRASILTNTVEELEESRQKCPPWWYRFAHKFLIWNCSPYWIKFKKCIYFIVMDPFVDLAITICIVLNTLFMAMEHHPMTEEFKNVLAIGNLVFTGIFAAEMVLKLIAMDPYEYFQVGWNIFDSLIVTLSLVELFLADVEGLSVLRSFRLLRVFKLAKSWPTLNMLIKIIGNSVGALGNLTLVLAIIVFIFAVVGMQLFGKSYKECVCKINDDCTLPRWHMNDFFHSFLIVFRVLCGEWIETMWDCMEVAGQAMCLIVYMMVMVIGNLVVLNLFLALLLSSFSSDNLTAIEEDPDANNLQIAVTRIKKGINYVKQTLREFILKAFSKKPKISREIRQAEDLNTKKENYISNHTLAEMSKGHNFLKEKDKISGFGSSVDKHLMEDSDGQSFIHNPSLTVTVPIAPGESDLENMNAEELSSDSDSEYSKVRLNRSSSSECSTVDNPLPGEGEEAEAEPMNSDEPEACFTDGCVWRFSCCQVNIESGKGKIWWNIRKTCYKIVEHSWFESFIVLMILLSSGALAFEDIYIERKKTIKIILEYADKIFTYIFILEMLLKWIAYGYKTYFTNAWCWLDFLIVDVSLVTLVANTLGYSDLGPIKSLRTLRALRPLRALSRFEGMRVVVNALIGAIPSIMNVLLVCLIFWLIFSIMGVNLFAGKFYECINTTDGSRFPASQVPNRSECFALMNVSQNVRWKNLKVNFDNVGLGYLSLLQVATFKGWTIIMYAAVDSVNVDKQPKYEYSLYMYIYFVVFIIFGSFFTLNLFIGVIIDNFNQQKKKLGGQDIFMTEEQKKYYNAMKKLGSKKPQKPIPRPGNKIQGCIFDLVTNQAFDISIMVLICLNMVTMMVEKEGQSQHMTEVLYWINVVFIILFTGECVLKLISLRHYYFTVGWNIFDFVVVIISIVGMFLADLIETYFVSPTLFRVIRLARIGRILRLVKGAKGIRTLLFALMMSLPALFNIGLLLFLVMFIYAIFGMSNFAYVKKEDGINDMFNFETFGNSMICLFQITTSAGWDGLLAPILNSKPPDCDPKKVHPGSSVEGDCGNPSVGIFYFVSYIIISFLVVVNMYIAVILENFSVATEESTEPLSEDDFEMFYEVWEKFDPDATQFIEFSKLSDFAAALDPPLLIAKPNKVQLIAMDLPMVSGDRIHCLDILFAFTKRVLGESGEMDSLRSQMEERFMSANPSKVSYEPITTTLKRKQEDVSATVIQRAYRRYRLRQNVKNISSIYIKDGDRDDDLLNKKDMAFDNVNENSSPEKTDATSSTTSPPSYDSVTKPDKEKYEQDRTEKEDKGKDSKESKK

Take `CN(c1cccc(Cl)c1)c1nc(N)nc(-c2noc(-c3ccco3)n2)n1` [Example 7, 6-(5-Furan-2-yl-[1,2,4]oxadiazol-3-yl)-N-methyl-N-(3-chlorophenyl)-[1,3,5]triazine-2,4-diamine]: the IC50 at Nav 1.7 [1] (setting [3]) came to 187 nM; against Nav1.5, 847 nM.

Turning to `CN(c1cccc(F)c1)c1nc(N)nc(-c2noc(-c3ccccc3Cl)n2)n1` [Example 86, 6-[5-(2-Chloro-phenyl)-[1,2,4]oxadiazol-3-yl]-N-(3-fluoro-phenyl)-N-methyl-[1,3,5]triazine-2,4-diamine], the figures for the IC50 at Nav 1.7 [1] (setting [3]) and at Nav1.5 were 126 nM and 300 nM, respectively.

Take `COc1ccc(-c2nc(-c3nc(N)nc(N(C)c4ccccc4)n3)no2)nc1` [Example 118, 6-[5-(5-Methoxy-pyridin-2-yl)-[1,2,4]oxadiazol-3-yl]-N-methyl-N-phenyl-[1,3,5]triazine-2,4-diamine]: the figures for the IC50 at Nav 1.7 [2] and at Nav1.5 were 294 nM and 3340 nM, respectively.

As for `CN(c1ccccc1)c1nc(N)nc(-c2noc(-c3ccco3)n2)n1` [Example 1, 6-(5-Furan-2-yl-[1,2,4]oxadiazol-3-yl)-N-methyl-N-phenyl-[1,3,5]triazine-2,4-diamine], the results for the IC50 on Nav 1.7 [1] (setting [3]) and at Nav1.5 were 212 nM and 2430 nM, respectively.

`CCN(c1ccccc1)c1nc(N)nc(-c2noc(-c3ccccc3OC)n2)n1` [Example 95, N-Ethyl-6-[5-(2-methoxy-phenyl)-[1,2,4]oxadiazol-3-yl]-N-phenyl-[1,3,5]triazine-2,4-diamine]: the results for the IC50 on Nav 1.7 [1] (setting [3]) and at Nav1.5 were 46 nM and 3700 nM, respectively.

As for `COc1cccnc1-c1nc(-c2nc(N)nc(N(C)c3ccccc3)n2)no1` [Example 132, 6-[5-(3-Methoxy-2-pyridyl)-[1,2,4]oxadiazol-3-yl]-N-methyl-N-phenyl-[1,3,5]triazine-2,4-diamine], the IC50 at Nav 1.7 [2] was found to be 397 nM; on Nav1.5, 2600 nM.

`CN(c1nc(N)nc(-c2noc(-c3ccco3)n2)n1)c1cc(Cl)ccc1F` [Example 103, N-(5-Chloro-2-fluoro-phenyl)-6-(5-furan-2-yl-[1,2,4]oxadiazol-3-yl)-N-methyl-[1,3,5]triazine-2,4-diamine]: the IC50 on Nav 1.7 [1] (setting [3]) is 42 nM; against Nav1.5 it was 215 nM.

Take `CCN(c1ccccc1)c1nc(N)nc(-c2noc(-c3ccco3)n2)n1` [Example 21, N-Ethyl-6-(5-furan-2-yl-[1,2,4]oxadiazol-3-yl)-N-phenyl-[1,3,5]triazine-2,4-diamine]: the IC50 is 249 nM on Nav 1.7 [1] (setting [3]) and 2060 nM at Nav1.5.

`CN(c1ccc(F)cc1)c1nc(N)nc(-c2noc(-c3ccco3)n2)n1` [Example 16, N-(4-Fluoro-phenyl)-6-(5-furan-2-yl-[1,2,4]oxadiazol-3-yl)-N-methyl-[1,3,5]triazine-2,4-diamine]: the IC50 came to 264 nM at Nav 1.7 [1] (setting [3]) and 1050 nM at Nav1.5.

Regarding `Nc1nc(Nc2cccc(F)c2)nc(-c2noc(-c3ccco3)n2)n1` [Example 117, N-(3-Fluorophenyl)-6-(5-furan-2-yl-[1,2,4]oxadiazol-3-yl)-[1,3,5]triazine-2,4-diamine], the IC50 on Nav 1.7 [1] (setting [3]) came to 42 nM.

`CN(c1ccccc1)c1nc(N)nc(-c2noc(-c3ccn[nH]3)n2)n1` [Example 61, N-Methyl-N-phenyl-6-[5-(2H-pyrazol-3-yl)-[1,2,4]oxadiazol-3-yl]-[1,3,5]triazine-2,4-diamine]: on Nav 1.7 [1] (setting [3]), the IC50 worked out at 561 nM.

For `COc1ccc(N(C)c2nc(N)nc(-c3noc(-c4ccco4)n3)n2)cc1` [Example 6, 6-(5-Furan-2-yl-[1,2,4]oxadiazol-3-yl)-N-methyl-N-(4-methoxyphenyl)-[1,3,5]triazine-2,4-diamine], the IC50 on Nav 1.7 [1] (setting [3]) came to 1940 nM.

As to `Cc1csc(-c2nc(-c3nc(N)nc(N(C)c4ccccc4)n3)no2)n1` [Example 341, 2-N-methyl-6-[5-(4-methyl-1,3-thiazol-2-yl)-1,2,4-oxadiazol-3-yl]-2-N-phenyl-1,3,5-triazine-2,4-diamine], the IC50 on Nav 1.7 [1] (setting [4]) is 1490 nM.

`Cc1cccc(N(C)c2nc(N)nc(-c3noc(-c4ccco4)n3)n2)c1` [Example 3, 6-(5-Furan-2-yl-[1,2,4]oxadiazol-3-yl)-N-methyl-N-(3-methylphenyl)-[1,3,5]triazine-2,4-diamine]: on Nav 1.7 [1] (setting [3]), the IC50 is 272 nM.

Take `CN(c1ccccc1)c1nc(N)nc(-c2noc(-c3ccc(Cl)s3)n2)n1` [Example 12, N-Methyl-6-[5-(5-chloro-thiophen-2-yl)-[1,2,4]oxadiazol-3-yl]-N-phenyl-[1,3,5]triazine-2,4-diamine]: the IC50 on Nav 1.7 [1] (setting [3]) worked out at 2320 nM.

For `CN(c1ccccc1)c1nc(N)nc(-c2noc(-c3ncccn3)n2)n1` [Example 278, 2-N-methyl-2-N-phenyl-6-[5-(pyrimidin-2-yl)-1,2,4-oxadiazol-3-yl]-1,3,5-triazine-2,4-diamine], the IC50 on Nav 1.7 [1] (setting [4]) was found to be 1060 nM.

With `COc1ccccc1-c1nc(-c2nc(N)nc(N(C)c3cccc(Cl)c3)n2)no1` [Example 100, N-(3-Chloro-phenyl)-6-[5-(2-methoxy-phenyl)-[1,2,4]oxadiazol-3-yl]-N-methyl-[1,3,5]triazine-2,4-diamine], the figures for the IC50 on Nav 1.7 [2] and on Nav1.5 were 118 nM and 126 nM, respectively.

As to `CN(c1cccc(F)c1)c1nc(N)nc(-c2noc(-c3ccc(OCC4CC4)nc3)n2)n1` [Example 135, 6-{5-[6-(cyclopropylmethoxy)pyridin-3-yl]-1,2,4-oxadiazol-3-yl}-2-N-(3-fluorophenyl)-2-N-methyl-1,3,5-triazine-2,4-diamine], the IC50 at Nav 1.7 [1] (setting [3]) is 44 nM.

As to `CN(c1ccccc1)c1nc(N)nc(-c2noc(-c3ccccn3)n2)n1` [Example 9, N-Methyl-N-phenyl-6-(5-pyridin-2-yl-[1,2,4]oxadiazol-3-yl)-[1,3,5]triazine-2,4-diamine], the IC50 on Nav 1.7 [1] (setting [3]) came out at 769 nM.

Consider `COc1ccc(-c2nc(-c3nc(N)nc(N(C)c4ccccc4)n3)no2)cc1` [Example 26, 6-[5-(4-Methoxy-phenyl)-[1,2,4]oxadiazol-3-yl]-N-methyl-N-phenyl-[1,3,5]triazine-2,4-diamine], for which the IC50 at Nav 1.7 [1] (setting [3]) is 148 nM.

Consider `Nc1nc(-c2noc(-c3ccco3)n2)nc(N(CC(F)(F)F)c2ccccc2)n1` [Example 68, 6-(5-Furan-2-yl-[1,2,4]oxadiazol-3-yl)-N-phenyl-N-(2,2,2-trifluoro-ethyl)-[1,3,5]triazine-2,4-diamine], for which the IC50 was 225 nM on Nav 1.7 [2] and more than 10000 nM on Nav1.5.

In the case of `CN(c1ccccc1)c1nc(N)nc(-c2noc(N3CCC(OCC(F)(F)F)CC3)n2)n1` [Example 335, 2-N-methyl-2-N-phenyl-6-{5-[4-(2,2,2-trifluoroethoxy)piperidin-1-yl]-1,2,4-oxadiazol-3-yl}-1,3,5-triazine-2,4-diamine], at Nav 1.7 [1] (setting [4]), the IC50 worked out at 701 nM.

With `CN(c1ccccc1)c1nc(N)nc(-c2noc(N3CCC(COCC4CC4)CC3)n2)n1` [Example 216, 6-(5-{4-[(Cyclopropylmethoxy)methyl]piperidin-1-yl}-1,2,4-oxadiazol-3-yl)-2-N-methyl-2-N-phenyl-1,3,5-triazine-2,4-diamine], the IC50 at Nav 1.7 [1] (setting [4]) turned out to be 283 nM.

Consider `COc1ccccc1-c1nc(-c2nc(N)nc(N(C)c3ccccc3)n2)no1` [Example 25, 6-[5-(2-Methoxy-phenyl)-[1,2,4]oxadiazol-3-yl]-N-methyl-N-phenyl-[1,3,5]triazine-2,4-diamine], for which the IC50 at Nav 1.7 [1] (setting [3]) was 47 nM.
